# System: harmful plant species
# Assay: Specific trial examples: binary compositions applied by the post-emergence method, synergistic effect according to Colby (Tables 3.1-3.2)
# Assay type: in vivo
# Experimental: When the observed efficacies already exceed the formal sum total of the values of the tests with individual applications, they also exceed the expected value according to Colby, which is calculated using the formula below and is likewise regarded as an indication of synergism (cf. S. R. Colby; in Weeds 15 (1967) p. 20 to 22):
# Seeds or rhizome pieces of mono- and dicotyledonous weeds are placed in sandy loam in pots, covered with soil and grown in a greenhouse under good growth conditions (temperature, air humidity, water supply). Three weeks after sowing, the test plants are treated at the three-leaf stage with the compositions according to the invention. The compositions according to the invention formulated as spray powders or as emulsion concentrates are sprayed onto the green plant parts in various dosages with an application rate of 300 to 800 l/ha of water (equivalent).
# The sum total of the effects of the individual applications is reported under E^A; Expected values according to Colby are each reported under E^C.
# The rating period is reported in days after application (DAT).
compound,measurement,setting,value
O=C(O)CNCP(=O)(O)O [(B7.5) Glyphosate],Herbicidal action 28 DAT against Digitaria sanguinalis,15 g a.i./ha,10%
same,Herbicidal action 14 DAT against Alopecurus myosuroides,50 g a.i./ha,30%
same,Herbicidal action 14 DAT against Centaurea cyanus,50 g a.i./ha,50%
same,Herbicidal action 14 DAT against Lamium purpureum L.,50 g a.i./ha,50%
same,Herbicidal action 14 DAT against Lolium rigidum,50 g a.i./ha,10%
same,Herbicidal action 14 DAT against Lolium rigidum (resistant biotype),50 g a.i./ha,10%
same,Herbicidal action 14 DAT against Matricaria inodora,50 g a.i./ha,40%
same,Herbicidal action 14 DAT against Poa annua L.,50 g a.i./ha,20%
same,Herbicidal action 14 DAT against Viola tricolor,50 g a.i./ha,50%
same,Herbicidal action 28 DAT against Alopecurus myosuroides,50 g a.i./ha,20%
same,Herbicidal action 28 DAT against Alopecurus myosuroides (sensitive biotype),50 g a.i./ha,0%
same,Herbicidal action 28 DAT against Amaranthus palmeri (res.),50 g a.i./ha,10%
same,Herbicidal action 28 DAT against Brachiaria platyphylla,50 g a.i./ha,80%
same,Herbicidal action 28 DAT against Bromus sterilis,50 g a.i./ha,0%
same,Herbicidal action 28 DAT against Centaurea cyanus,50 g a.i./ha,30%
same,Herbicidal action 28 DAT against Digitaria sanguinalis,50 g a.i./ha,65%
same,Herbicidal action 28 DAT against Echinochloa crus-galli,50 g a.i./ha,20%
same,Herbicidal action 28 DAT against Eleusine indica,50 g a.i./ha,40%
same,Herbicidal action 28 DAT against Euphorbia heterophylla,50 g a.i./ha,10%
same,Herbicidal action 28 DAT against Galium aparine,50 g a.i./ha,0%
same,Herbicidal action 28 DAT against Hordeum murinum,50 g a.i./ha,10%
same,Herbicidal action 28 DAT against Ipomoea purpurea,50 g a.i./ha,15%
same,Herbicidal action 28 DAT against Kochia scoparia,50 g a.i./ha,20%
same,Herbicidal action 28 DAT against Lamium purpureum L.,50 g a.i./ha,30%
same,Herbicidal action 28 DAT against Matricaria inodora,50 g a.i./ha,20%
same,Herbicidal action 28 DAT against Pharbitis purpurea,50 g a.i./ha,40%
same,Herbicidal action 28 DAT against Polygonum convulvulus,50 g a.i./ha,0%
same,Herbicidal action 28 DAT against Raphanus raphanistrum,50 g a.i./ha,0%
same,Herbicidal action 28 DAT against Sorghum halepense,50 g a.i./ha,30%
same,Herbicidal action 14 DAT against Alopecurus myosuroides,150 g a.i./ha,60%
same,Herbicidal action 14 DAT against Bromus sterilis,150 g a.i./ha,50%
same,Herbicidal action 14 DAT against Lamium purpureum L.,150 g a.i./ha,60%
same,Herbicidal action 14 DAT against Lolium rigidum (resistant biotype),150 g a.i./ha,30%
same,Herbicidal action 14 DAT against Matricaria inodora,150 g a.i./ha,88%
same,Herbicidal action 28 DAT against Alopecurus myosuroides,150 g a.i./ha,30%
same,Herbicidal action 28 DAT against Alopecurus myosuroides (resistant biotype),150 g a.i./ha,0%
same,Herbicidal action 28 DAT against Alopecurus myosuroides (sensitive biotype),150 g a.i./ha,20%
same,Herbicidal action 28 DAT against Amaranthus palmeri (res.),150 g a.i./ha,20%
same,Herbicidal action 28 DAT against Avena fatua,150 g a.i./ha,20%
same,Herbicidal action 28 DAT against Bromus sterilis,150 g a.i./ha,20%
same,Herbicidal action 28 DAT against Centaurea cyanus,150 g a.i./ha,70%
same,Herbicidal action 28 DAT against Eleusine indica,150 g a.i./ha,80%
same,Herbicidal action 28 DAT against Euphorbia heterophylla,150 g a.i./ha,35%
same,Herbicidal action 28 DAT against Ipomoea purpurea,150 g a.i./ha,50%
same,Herbicidal action 28 DAT against Lamium purpureum,150 g a.i./ha,60%
same,Herbicidal action 28 DAT against Lamium purpureum L.,150 g a.i./ha,50%
same,Herbicidal action 28 DAT against Lolium rigidum (sensitive biotype),150 g a.i./ha,0%
same,Herbicidal action 28 DAT against Matricaria inodora,150 g a.i./ha,75%
same,Herbicidal action 28 DAT against Polygonum convolvulus,150 g a.i./ha,0%
same,Herbicidal action 28 DAT against Polygonum convulvulus,150 g a.i./ha,10%
same,Herbicidal action 28 DAT against Veronica hederifolia,150 g a.i./ha,85%
same,Herbicidal action 28 DAT against Viola tricolor,150 g a.i./ha,20%
same,Herbicidal action 14 DAT against Lolium rigidum (resistant biotype),450 g a.i./ha,40%
same,Herbicidal action 14 DAT against Viola tricolor,450 g a.i./ha,60%
same,Herbicidal action 28 DAT against Amaranthus palmeri (res.),450 g a.i./ha,35%
same,Herbicidal action 28 DAT against Bromus sterilis,450 g a.i./ha,60%
same,Herbicidal action 28 DAT against Euphorbia heterophylla,450 g a.i./ha,70%
same,Herbicidal action 28 DAT against Galium aparine,450 g a.i./ha,50%
same,Herbicidal action 28 DAT against Ipomoea purpurea,450 g a.i./ha,65%
same,Herbicidal action 28 DAT against Lamium purpureum,450 g a.i./ha,80%
same,Herbicidal action 28 DAT against Lamium purpureum L.,450 g a.i./ha,80%
same,Herbicidal action 28 DAT against Lolium rigidum,450 g a.i./ha,40%
same,Herbicidal action 28 DAT against Lolium rigidum (sensitive biotype),450 g a.i./ha,50%
same,Herbicidal action 28 DAT against Matricaria inodora,450 g a.i./ha,80%
same,Herbicidal action 28 DAT against Phalaris minor,450 g a.i./ha,60%
same,Herbicidal action 28 DAT against Polygonum convolvulus,450 g a.i./ha,0%
same,Herbicidal action 28 DAT against Polygonum convulvulus,450 g a.i./ha,40%
same,Herbicidal action 28 DAT against Raphanus raphanistrum,450 g a.i./ha,30%
same,Herbicidal action 28 DAT against Stellaria media,450 g a.i./ha,85%
same,Herbicidal action 28 DAT against Veronica hederifolia,450 g a.i./ha,85%
same,Herbicidal action 28 DAT [%] against Digitaria sanguinalis,"post-emergence, single active compound (Glyphosate series), g a.i./ha: r765 50, r767 15",45%
same,Herbicidal action 28 DAT [%] against Sorghum halepense,"post-emergence, single active compound (Glyphosate series), g a.i./ha: r775 50, r777 15, r778 1.67",30%
same,Herbicidal action 28 DAT [%] against Setaria viridis,"post-emergence, single active compound (Glyphosate series), g a.i./ha: r786 450, r788 1.67",95%
same,Herbicidal action 28 DAT [%] against Abutilon theophrasti,"post-emergence, single active compound (Glyphosate series), g a.i./ha: r796 450, r798 5",85%
"C=C[C@]1(C(=O)N[C@@H]2C=C(C(=O)NS(C)(=O)=O)OC2)CC(c2cc(F)cc(F)c2)=NO1 [Compound A4, (5S)-3-(3,5-difluorophenyl)-N-[(3R)-5-(methylsulfonylcarbamoyl)-2,3-dihydrofuran-3-yl]-5-vinyl-4H-isoxazole-5-carboxamide]",Herbicidal action 14 DAT against Alopecurus myosuroides,1 g a.i./ha,10%
same,Herbicidal action 14 DAT against Bromus sterilis,1 g a.i./ha,20%
same,Herbicidal action 14 DAT against Lolium rigidum (resistant biotype),1 g a.i./ha,10%
same,Herbicidal action 14 DAT against Matricaria inodora,1 g a.i./ha,40%
same,Herbicidal action 14 DAT against Poa annua L.,1 g a.i./ha,20%
same,Herbicidal action 14 DAT against Viola tricolor,1 g a.i./ha,30%
same,Herbicidal action 28 DAT against Alopecurus myosuroides,1 g a.i./ha,0%
same,Herbicidal action 28 DAT against Bromus sterilis,1 g a.i./ha,10%
same,Herbicidal action 28 DAT against Lamium purpureum L.,1 g a.i./ha,20%
same,Herbicidal action 28 DAT against Matricaria inodora,1 g a.i./ha,10%
same,Herbicidal action 28 DAT against Viola tricolor,1 g a.i./ha,0%
same,Herbicidal action 14 DAT against Centaurea cyanus,4 g a.i./ha,30%
same,Herbicidal action 14 DAT against Lamium purpureum L.,4 g a.i./ha,30%
same,Herbicidal action 14 DAT against Lolium rigidum (resistant biotype),4 g a.i./ha,10%
same,Herbicidal action 14 DAT against Matricaria inodora,4 g a.i./ha,30%
same,Herbicidal action 14 DAT against Viola tricolor,4 g a.i./ha,30%
same,Herbicidal action 28 DAT against Bromus sterilis,4 g a.i./ha,30%
same,Herbicidal action 28 DAT against Lolium rigidum,4 g a.i./ha,10%
same,Herbicidal action 28 DAT against Lolium rigidum (resistant biotype),4 g a.i./ha,0%
same,Herbicidal action 28 DAT against Matricaria inodora,4 g a.i./ha,10%
same,Herbicidal action 28 DAT against Phalaris minor,4 g a.i./ha,10%
same,Herbicidal action 28 DAT against Viola tricolor,4 g a.i./ha,0%
same,Herbicidal action 14 DAT against Alopecurus myosuroides,16 g a.i./ha,30%
same,Herbicidal action 14 DAT against Centaurea cyanus,16 g a.i./ha,40%
same,Herbicidal action 14 DAT against Poa annua L.,16 g a.i./ha,40%
same,Herbicidal action 28 DAT against Galium aparine,16 g a.i./ha,20%
same,Herbicidal action against Galium aparine,"(Z90) 28 DAT, g a.i./ha: r575 16, r576 270, r577 90, r578 30",20%
same,Herbicidal action against Lamium purpureum L.,"(Z90) 28 DAT, g a.i./ha: r586 16, r587 30",30%
same,Herbicidal action against Lolium rigidum,"(Z90) 28 DAT, g a.i./ha: r594 16, r595 30",10%
same,Herbicidal action against Matricaria inodora,"(Z90) 28 DAT, g a.i./ha: r602 4, r603 90",10%
same,Herbicidal action against Viola tricolor,"(Z90) 28 DAT, g a.i./ha: r624 4, r625 270",0%
same,Herbicidal action in [%] 28 DAT against Galium aparine,"post-emergence, single active compound (A4 series), g a.i./ha: r491 16, r492 50",20%
same,Herbicidal action in [%] 14 DAT against Lamium purpureum L.,"post-emergence, single active compound (A4 series), g a.i./ha: r501 4, r502 1, r503 450",30%
same,Herbicidal action in [%] 28 DAT against Lamium purpureum L.,"post-emergence, single active compound (A4 series), g a.i./ha: r512 4, r513 1, r514 450",20%
same,Herbicidal action in [%] 28 DAT against Lolium rigidum (resistant bio type),"post-emergence, single active compound (A4 series), g a.i./ha: r523 1, r524 450",0%
same,Herbicidal action in [%] 14 DAT against Poa annua L.,"post-emergence, single active compound (A4 series), g a.i./ha: r533 16, r534 450",40%

# Reference: US20220053762A1, “HERBICIDAL COMPOSITIONS” (Bayer Aktiengesellschaft, priority 2018, published 2022)
